# Results reported in publication PMC10004634 (PLOS ONE, 2023).
# Assays:
# TMD8 cells = assay: Cell viability assay (CellTiter-Glo); format: cell-based; conditions: Homo sapiens, 72 h
# Protocol: (§1) After incubation for 72 h at 37°C and 5% CO2/95% air, relative light units (RLU) were measured with the CellTiter-Glo Luminescent Cell Viability Assay (Promega, Madison, WI, USA). […] GraphPad Prism (version 5.01J or 5.04; GraphPad Software, Inc., San Diego, CA, USA) and its base settings were used for initial values and convergence conditions.
# U-2932 cells = assay: Cell viability assay (CellTiter-Glo); format: cell-based; conditions: Homo sapiens, U2932, 72 h
# Protocol: as §1
# TMD8 xenograft tumor [1] = assay: Gene set enrichment analysis (GSEA) of TMD8 xenograft microarray data; format: in vivo, mouse
# TMD8 xenograft tumor [2] = assay: Gene expression microarray analysis of TMD8 xenograft tumors
# Protocol: The TMD8 xenograft model was also used for microarray analysis. […] After 21 days of drug administration and 24 h after the final dose, the mice underwent laparotomy under isoflurane anesthesia and were sacrificed by exsanguination. Tumors were collected and quickly frozen with liquid nitrogen. RNA extraction and gene expression microarray analysis were performed at LSI Medience Corporation (Tokyo, Japan) using the miRNeasy® mini kit (Qiagen, Hilden, Germany) and the Low Input Quick Amp Labeling Kit (Agilent Technologies, Santa Clara, CA, USA) according to the manufacturers’ instructions. The DNA microarray results were processed using Expressionist Analyst (GeneData, Basel, Switzerland) and Excel.
# PKNB(M.tuberculosis) = PKNB(M.tuberculosis) (Mycobacterium tuberculosis, UniProt P9WI81); assay: biochemical; conditions: read-out: Percent control / Ibrutinib
# Chain of PKNB(M.tuberculosis) (P9WI81 whole entry, looked up): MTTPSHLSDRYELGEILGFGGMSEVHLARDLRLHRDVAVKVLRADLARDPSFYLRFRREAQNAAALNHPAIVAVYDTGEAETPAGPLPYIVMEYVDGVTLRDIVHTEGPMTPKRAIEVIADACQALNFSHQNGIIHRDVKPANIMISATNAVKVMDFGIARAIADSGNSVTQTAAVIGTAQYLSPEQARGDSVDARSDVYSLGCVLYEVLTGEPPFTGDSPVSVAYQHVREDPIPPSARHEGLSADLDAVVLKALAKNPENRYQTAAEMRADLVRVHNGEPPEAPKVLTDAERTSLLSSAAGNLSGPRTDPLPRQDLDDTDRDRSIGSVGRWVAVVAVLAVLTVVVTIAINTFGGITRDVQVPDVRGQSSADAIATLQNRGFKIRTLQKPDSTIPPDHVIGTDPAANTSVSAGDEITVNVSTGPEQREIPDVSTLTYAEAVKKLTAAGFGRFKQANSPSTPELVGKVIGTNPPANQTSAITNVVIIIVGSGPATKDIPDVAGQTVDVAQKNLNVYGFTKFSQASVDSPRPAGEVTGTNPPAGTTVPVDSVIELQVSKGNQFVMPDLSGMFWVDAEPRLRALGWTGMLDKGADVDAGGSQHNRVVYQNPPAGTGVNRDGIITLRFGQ
# PFPK5(P.falciparum) = molecular target: T1, PFPK5(P.falciparum) (Plasmodium falciparum, UniProt P61075); assay: biochemical; conditions: read-out: Percent control / Zanubrutinib
# T1 construct: gene MAL13P1.279
# T1 sequence (P61075 whole entry): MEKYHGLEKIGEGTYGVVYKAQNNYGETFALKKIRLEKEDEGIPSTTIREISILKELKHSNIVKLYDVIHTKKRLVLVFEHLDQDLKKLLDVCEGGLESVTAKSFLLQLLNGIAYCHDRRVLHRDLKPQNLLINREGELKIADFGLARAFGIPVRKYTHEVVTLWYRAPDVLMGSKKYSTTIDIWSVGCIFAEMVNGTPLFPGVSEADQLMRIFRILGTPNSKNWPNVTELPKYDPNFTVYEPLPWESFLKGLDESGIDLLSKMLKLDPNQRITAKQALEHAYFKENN
# [3] = at 100 nM, read-out: maximum growth inhibition rate
# [4] = read-out: IC50 of growth inhibition
# [5] = GSEA report for tirabrutinib 10, 10 mg/kg vs vehicle
# [6] = GSEA report for vehicle, tirabrutinib 10 mg/kg vs vehicle
compound,measurement,setting,value
CC#CC(=O)N1CC[C@@H](n2c(=O)n(-c3ccc(Oc4ccccc4)cc3)c3c(N)ncnc32)C1 [Tirabrutinib],inhibition at 0.1 µM,TMD8 cells; [3],98.6%
same,IC50,TMD8 cells; [4],0.00359 µM
same,inhibition at 0.1 µM,U-2932 cells; [3],30.8%
same,IC50,U-2932 cells; [4],0.0276 µM
same,"IRF4, MYC, and mTORC1 pathway-related genes (GSEA)",TMD8 xenograft tumor [1]; 10 mg/kg vs vehicle,downregulated
same,NES DESCARTES_FETAL_LUNG_LYMPHOID_CELLS,TMD8 xenograft tumor [1]; [5],2.406
same,NES DESCARTES_FETAL_STOMACH_LYMPHOID_CELLS,TMD8 xenograft tumor [1]; [5],2.57
same,NES GOBP_CYTOKINE_PRODUCTION_INVOLVED_IN_INFLAMMATORY_RESPONSE,TMD8 xenograft tumor [1]; [5],2.462
same,NES MORI_PLASMA_CELL_DN,TMD8 xenograft tumor [1]; [5],2.456
same,NES REACTOME_GENERATION_OF_SECOND_MESSENGER_MOLECULES,TMD8 xenograft tumor [1]; [5],2.407
same,NES ELVIDGE_HIF1A_TARGETS_DN,TMD8 xenograft tumor [1]; [6],-2.295
same,NES GSE29614_CTRL_VS_DAY7_TIV_FLU_VACCINE_PBMC_DN,TMD8 xenograft tumor [1]; [6],-2.25
same,NES MENSE_HYPOXIA_UP,TMD8 xenograft tumor [1]; [6],-2.505
same,NES QI_HYPOXIA,TMD8 xenograft tumor [1]; [6],-2.398
same,NES TSANG_PBMC_FLUVIRIN_PANDEMRIX_ADULT_CORR_WITH_CELL_FREQ_CD27HI_CD38HI_CD20_NEG_PLASMABLASTS_AND_CD38PLUS_OF_IGD_CD27PLUS_MEM_B_CELLS_7DY_POSITIVE,TMD8 xenograft tumor [1]; [6],-2.3945
same,number of downregulated probes,"TMD8 xenograft tumor [2]; 10 mg/kg BID 21 days vs vehicle, fold change <0.5, P < 0.01",575
same,number of upregulated probes,"TMD8 xenograft tumor [2]; 10 mg/kg BID 21 days vs vehicle, fold change >2, P < 0.01",549
same,PRDM1 expression,"TMD8 xenograft tumor [2]; TMD8 xenograft, tirabrutinib vs vehicle",repressed
C=CC(=O)N1CCC[C@@H](n2nc(-c3ccc(Oc4ccccc4)cc3)c3c(N)ncnc32)C1 [Ibrutinib],remaining activity at 0.3 µM,PKNB(M.tuberculosis),93%
C=CC(=O)N1CCC([C@@H]2CCNc3c(C(N)=O)c(-c4ccc(Oc5ccccc5)cc4)nn32)CC1 [Zanubrutinib],remaining activity at 0.3 µM,PFPK5(P.falciparum),100%
